Source: PMC12671136, “Antimicrobial peptides disrupting the bacterial membrane reduce Salmonella colonization in chickens” (Microbiology Spectrum, 2025)
Converted amounts (≈) assume the structure as drawn. Peptide text beside a SMILES is read from it.

Key:
Assay type in all cases: cell-based
[1] = system: Salmonella Enteritidis (SE); conditions: 12 h
Method: (§1) The inhibitory effect of the peptides was assessed as described previously ([23]). ST was grown overnight and adjusted to 5 × 10^5 CFU/ml, and 100 µL of this measured concentration was placed into the wells of a 96-well plate. Peptides P1–P6 were added to the well at 12 mM concentration, and the plate was incubated in a TECAN Sunrise^TM absorbance microplate reader at 37°C, with kinetic absorbance measurements taken every 30 min for 12 h. The growth inhibitory activity was calculated with the formula (OD600 DMSO-treated well − OD600 peptide-treated well)/OD600 DMSO-treated well × 100%. Wells treated with DMSO and containing Salmonella, as well as sterile media wells without Salmonella, were used as controls. At least two independent experiments were conducted.
(§2) MIC was determined as the peptide concentration at which no increase in growth (no increase in OD) was observed, indicating complete inhibition of ST growth. Additionally, to test the efficacy of peptides against another serovar, the assay was conducted using SE, with peptides added at 15 mM and 18 mM concentrations. Following incubation (37°C, 12 h), cultures were plated on the LB agar plate to confirm the bactericidal effect. At least two independent experiments were conducted.
(§3) To analyze the perceived efficacy of arginine and lysine substitutes reported in previous studies ([36], [37]), specific amino acid residues in P1 and P2 were replaced with lysine or arginine and tested if the substitutions enhanced anti-Salmonella (ST and SE) activity. The MICs of the arginine or lysine substituted peptides ([…], […], […], KDENK, PDEKK, KDEKK) were determined as described above. At least two independent experiments were conducted.

[2] = system: Salmonella Typhimurium (ST); conditions: for MIC: murium (ST, 12 h)
Method: as §1, §2, §3

[3] = system: Salmonella Enteritidis (SE)
Method: (§4) P1, P2, and P4 were heated for 6 min at 86°C ([21]) or treated with protease proteinase K (200 µg/ml) at 50°C for 30 min ([26]). Afterward, the treated and/or heated peptides at their respective MICs were evaluated in the inhibition assay with Salmonella. The protocol from above using the TECAN microplate reader was followed with the same controls.

[4] = system: Salmonella Typhimurium (ST); conditions: murium (ST)
Method: as §4

Salmonella Newport = system: Salmonella Newport
Method: (§5) To further test the spectrum of the peptides’ anti-Salmonella capabilities, eight additional Salmonella serovars commonly implicated in foodborne illness (S. Anatum, S. Albany, S. Brenderup, S. Javiana, S. Heidelberg, S. Muenchen, S. Newport, S. Saintpaul) were investigated (Table S1). P1, P2, and P4 (selected based on dose-response assay results) were added to the assay at their MICs to determine their effect on different serovars. Inhibition was determined using the criteria described above.

Salmonella Anatum = system: Salmonella Anatum
Method: as §5

Salmonella Muenchen = system: Salmonella Muenchen
Method: as §5

Salmonella Javiana = system: Salmonella Javiana
Method: as §5

Salmonella Albany = system: Salmonella Albany
Method: as §5

Salmonella Brenderup = system: Salmonella Brenderup
Method: as §5

Salmonella Heidelberg = system: Salmonella Heidelberg
Method: as §5

Salmonella Saintpaul = system: Salmonella Saintpaul
Method: as §5

| SMILES | MIC [1] [mM] | MIC [2] [mM] | MIC (mM) against SE, No treatment [1] [mM] | MIC (mM) against SE, Heat treatment [3] [mM] | MIC (mM) against SE, Protease treatment [3] [mM] | MIC (mM) against ST, Heat treatment [4] [mM] | MIC (mM) against ST, Protease treatment [4] [mM] | Efficacy against Salmonella Newport (concentration inhibiting completely, MIC) (Salmonella Newport) [mM] | Efficacy against Salmonella Anatum (concentration inhibiting completely, MIC) (Salmonella Anatum) [mM] | Efficacy against Salmonella Muenchen (concentration inhibiting completely, MIC) (Salmonella Muenchen) [mM] | Efficacy against Salmonella Javiana (concentration inhibiting completely, MIC) (Salmonella Javiana) [mM] | Efficacy against Salmonella Albany (concentration inhibiting completely, MIC) (Salmonella Albany) [mM] | Efficacy against Salmonella Brenderup (concentration inhibiting completely, MIC) (Salmonella Brenderup) [mM] | Efficacy against Salmonella Heidelberg (concentration inhibiting completely, MIC) (Salmonella Heidelberg) [mM] | Efficacy against Salmonella Saintpaul (concentration inhibiting completely, MIC) (Salmonella Saintpaul) [mM] | further results |
| --- | --- | --- | --- | --- | --- | --- | --- | --- | --- | --- | --- | --- | --- | --- | --- | --- |
| N=C(N)NCCC[C@H](NC(=O)[C@H](CCCNC(=N)N)NC(=O)[C@H](CCC(=O)O)NC(=O)[C@H](CCCNC(=N)N)NC(=O)[C@H](CCCNC(=N)N)NC(=O)[C@H](CO)NC(=O)[C@@H]1CCCN1C(=O)[C@@H](N)CC(N)=O)C(=O)O (H-NPSRRERR-OH) | >18 | >18 | – | – | – | – | – | – | – | – | – | – | – | – | – | – |
| N=C(N)NCCC[C@H](NC(=O)[C@H](CCCNC(=N)N)NC(=O)[C@H](CCC(=O)O)NC(=O)[C@H](CCC(N)=O)NC(=O)[C@H](CCCNC(=N)N)NC(=O)[C@H](CO)NC(=O)[C@@H]1CCCN1C(=O)[C@@H](N)CC(N)=O)C(=O)O [Peptide P1] (H-NPSRQERR-OH) | – | – | 18 (≈ 18.8 mg/mL) | 18 (≈ 18.8 mg/mL) | 18 (≈ 18.8 mg/mL) | 18 (≈ 18.8 mg/mL) | 18 (≈ 18.8 mg/mL) | 18 | 18 | 18 | 18 | 18 | 18 | 18 | 18 | – |
| NCCCC[C@H](NC(=O)[C@H](CCCCN)NC(=O)[C@H](CCC(=O)O)NC(=O)[C@H](CC(=O)O)NC(=O)[C@@H]1CCCN1)C(=O)O [PDEKK] (H-PDEKK-OH) | – | 15 (≈ 9.24 mg/mL) | – | – | – | – | – | – | – | – | – | – | – | – | – | – |
| NCCCC[C@H](NC(=O)[C@H](CCCCN)NC(=O)[C@H](CCC(=O)O)NC(=O)[C@H](CC(=O)O)NC(=O)[C@@H](N)CCCCN)C(=O)O [KDEKK] (H-KDEKK-OH) | 15 (≈ 9.7 mg/mL) | 15 (≈ 9.7 mg/mL) | – | – | – | – | – | – | – | – | – | – | – | – | – | – |
| CC(C)[C@H](N)C(=O)N[C@@H](Cc1c[nH]cn1)C(=O)N[C@H](C(=O)N[C@@H](C)C(=O)N1CCC[C@H]1C(=O)N[C@@H](CCCCN)C(=O)O)[C@@H](C)O [Peptide P3] (H-VHTAPK-OH; N-terminus and C-terminus assumed) | – | – | – | – | – | – | – | – | – | – | – | – | – | – | – | Complete inhibition of ST growth ([2]; peptide 6, 12, 15 and 18 mM, 12 h, 37°C): Neither P3 nor P4 completely inhibited ST |
| NCCCC[C@H](NC(=O)[C@H](CC(N)=O)NC(=O)[C@H](CCC(=O)O)NC(=O)[C@H](CC(=O)O)NC(=O)[C@@H](N)CCCCN)C(=O)O [KDENK] (H-KDENK-OH) | 12 (≈ 7.59 mg/mL) | 12 (≈ 7.59 mg/mL) | – | – | – | – | – | – | – | – | – | – | – | – | – | – |
| N=C(N)NCCC[C@H](NC(=O)[C@H](CCCNC(=N)N)NC(=O)[C@H](CCC(=O)O)NC(=O)[C@H](CCC(N)=O)NC(=O)[C@H](CCCNC(=N)N)NC(=O)[C@H](CCCNC(=N)N)NC(=O)[C@@H]1CCCN1C(=O)[C@@H](N)CC(N)=O)C(=O)O (H-NPRRQERR-OH) | 18 (≈ 20 mg/mL) | 15 (≈ 16.7 mg/mL) | – | – | – | – | – | – | – | – | – | – | – | – | – | – |
| NCCCC[C@H](NC(=O)[C@H](CC(N)=O)NC(=O)[C@H](CCC(=O)O)NC(=O)[C@H](CC(=O)O)NC(=O)[C@@H]1CCCN1)C(=O)O [Peptide P2] (H-PDENK-OH) | – | – | 15 (≈ 9.02 mg/mL) | 15 (≈ 9.02 mg/mL) | 15 (≈ 9.02 mg/mL) | 15 (≈ 9.02 mg/mL) | 15 (≈ 9.02 mg/mL) | 15 | 15 | 15 | 15 | 15 | 15 | 15 | 15 | – |
| CSCC[C@H](N)C(=O)N[C@@H](CC(C)C)C(=O)N[C@@H](CC(N)=O)C(=O)N[C@@H](CCC(=O)O)C(=O)N[C@@H](CCCNC(=N)N)C(=O)N[C@H](C(=O)N[C@@H](CCCCN)C(=O)O)C(C)C [Peptide P4] (H-MLNERVK-OH) | – | – | 18 (≈ 16 mg/mL) | 18 (≈ 16 mg/mL) | 18 (≈ 16 mg/mL) | 18 (≈ 16 mg/mL) | 18 (≈ 16 mg/mL) | 18 | 18 | 18 | 18 | 18 | 18 | 18 | 18 | – |
| N=C(N)NCCC[C@H](NC(=O)[C@H](CCCNC(=N)N)NC(=O)[C@H](CCC(=O)O)NC(=O)[C@H](CCCNC(=N)N)NC(=O)[C@H](CCCNC(=N)N)NC(=O)[C@H](CCCNC(=N)N)NC(=O)[C@@H]1CCCN1C(=O)[C@@H](N)CC(N)=O)C(=O)O (H-NPRRRERR-OH) | >18 | 15 (≈ 17.1 mg/mL) | – | – | – | – | – | – | – | – | – | – | – | – | – | – |
